Measurements published in patent publication US5421897A, “Abatement process for contaminants” (priority 1992, dated 1995).
Read-outs that look alike come from different tables or passages of the source.

Columns and labels:
[1] = Sax, 6th Ed., P. 347; cited from earlier work
[2] = C.A. 95:36562k; cited from earlier work
gpg [3] = settings: orl-gpg; cited from earlier work
gpg [4] = experiment: Oral toxicity orl-gpg LDLo (lead toxicity mitigation); settings: transformation of lead oxide to lead sulfide
[5] = C.A. 103:136646t; cited from earlier work
[6] = Time required to form solid-state, sodium silicofluoride added to Neoprene 671 latex; assay type: physicochemical
Text: If the overspray method is not preferred, an in-situ solidifying compound can be used that reduces the application process to a single step. To effect in-situ transformation from the liquid to the solid state, about 0.25 to about 6 parts of a solidifying compound such as ammonium silicofluoride, sodium silicofluoride, or potassium silicofluoride per hundred parts solid resin (phr) may be added to the liquid-state composition as a finely ground (e.g., ball milled) dispersion just prior to application.
The time required to form a solid-state will vary according to concentration of solidifying compound and polymer type. By way of example, when sodium silicofluoride was added to Neoprene 671 latex, the following results were attained.

man = settings: cited from earlier work
[7] = C.A. 98:100331a; cited from earlier work
[8] = C.A. 100:116031y; cited from earlier work
dog = settings: scu-dog; cited from earlier work
[9] = C.A. 96:47119t, 101:189850v; cited from earlier work
[10] = Copper oxide cleaning (Example 5), painted cinder block; settings: weight loss
Experimental: Samples of coarse, deep pore cinder block (2×2×1/2 inch) were sealed by spray applying a 4-7 mil wet film thickness coating of interior, semigloss alkyd paint. The coated samples were air dried at ambient temperature for 7 days and subsequently cured at 150° F. for 8 hours. A 5% dispersion of copper oxide in hexane was spray applied until the dry copper oxide up-take reached approximately 250 mg/sample. After spraying, the samples were allowed to dry at ambient temperature for 24 hours, whereupon 20-25 wet mils of the liquid-state composition were spray applied over the contaminated surfaces. After 10 minutes, the liquid-statecomposition was scrubbed into the surface using the circular action of a nylon dental brush. After 20 scrub cycles, the brush was removed, and an additional 25-30 mils wet film thickness of liquid-state composition were spray applied over the treated area. After drying for 24 hours at ambient temperature, the solid-state matrix was removed and the reverse side was inspected. […] The larger matrix projections reached 0.6 to 0.9 mm in length. […] A subtle discoloration of the white alkyd paint (graying) was noted. Weight-loss measurements indicated 78% removal of CuO. […]

[11] = C.A. 101:205528d; cited from earlier work
[12] = 25° C.; cited from earlier work
mus = settings: scu-mus; cited from earlier work

Molecule: Barium sulfate
- acute toxicity [1]: not being acutely toxic

Molecule: O=C(O)C(S)C(S)C(=O)O (centres unmarked) [2,3-dimercaptosuccinic acid]
- antidotal activity for antimony [2]: provides antidotal activity for antimony

Molecule: [S]=[Pb] [lead sulfide]
- LDLo (gpg [3]): 10 gm/Kg
- reduction in toxicity (gpg [4]): 10 fold

Molecule: O=C(O)CN(CC(=O)O)CC(=O)O [N,N-bis(carboxymethyl)glycine]
- antidotal activity for chromium [5]: provides antidotal activity for chromium

Molecule: F[Si-2](F)(F)(F)(F)F.[Na+].[Na+] [Sodium Silicofluoride, sodium silicofluoride]
- Time Required to Form Solid-State ([6]; 2 phr added to Neoprene 671 latex): 150 min
- Time Required to Form Solid-State ([6]; 2.5 phr added to Neoprene 671 latex): 18 min
- Time Required to Form Solid-State ([6]; 3 phr added to Neoprene 671 latex): 7 min
- Time Required to Form Solid-State ([6]; 4 phr added to Neoprene 671 latex): 5 min

Molecule: O=C([O-])[O-].O=C([O-])[O-].[OH-].[OH-].[Pb+2].[Pb+2].[Pb+2] [White lead]
- Symptoms (man; in vivo): Same as lead halides
- TDLo (man; orl-man): 214 mg/kg

Molecule: O=Cc1ccc(O)cc1O [2,4-dihydroxybenzaldehyde]
- spray-on reagent for identification of arsenic III [7]: useful as a spray-on reagent for the identification of arsenic III

Molecule: [Cl][Pb][Cl] [Lead chloride]
- LDLo (gpg [3]): 2000 mg/kg

Molecule: [Sb] [Antimony]
- LDLo (man; unk.-man): 15 mg/kg

Molecule: [SH-].[SH-].[S]=[Mo]=[S] [Tetrathiomolybdate (VI)]
- antidotal activity for copper [8]: provides antidotal activity for copper

Molecule: [Cr] [Chromium]
- LDLo (dog): 330 mg/kg

Molecule: [Cd] [Cadmium]
- TCLo (man; inhl-man): 40 μg/m^3

Molecule: O=P(O)(O)O[C@H]1[C@H](OP(=O)(O)O)[C@@H](OP(=O)(O)O)[C@H](OP(=O)(O)O)[C@@H](OP(=O)(O)O)[C@H]1OP(=O)(O)O [Sodium phytate]
- antidotal activity [9]: provides antidotal activity

Molecule: O=P([O-])([O-])[O-].[Na+].[Na+].[Na+] [trisodiumphosphate]
- removal of CuO [10]: 55%

Molecule: O=C(O)c1ccccc1C(=O)NCC(S)CS (centres unmarked) [N-(2,3-dimercaptopropyl)phthalamidic acid]
- antidotal activity for sodium arcenate [11]: provides antidotal activity for sodium arcenate

Molecule: lead oxide
- LDLo (gpg [3]): 1000 mg/kg

Molecule: [Cu] [Copper]
- TDLo (man; orl-hmn): 0.12 mg/kg

Molecule: C=O [Formaldehyde]
- Vapor pressure [12]: 0.187 kPa
- LD50 (mus): 300 mg/kg
- toxicity grade (mus): Severe toxicity

Molecule: [Ba] [Barium]
- LDLo (man; orl-hmm): 11.4 mg/kg

Molecule: Formaldehyde Hydrosulfate
- Vapor pressure [12]: No vapor pressure
- LDLo (mus): 3000 mg/kg
- toxicity grade (mus): Moderate toxicity
